Broadly, the Ki is the dissociation constant of the complex between target and ligand, obtained from inhibition or displacement. Read a low Ki as tighter binding. For orientation: EC50 means the midpoint of the concentration-response curve.

The results in this text go back to US7998998B2, “Therapeutic substituted lactams” (Allergan, Inc., priority 2007, dated 2011).

Assay [1] concerns the target T1, EP2 (Homo sapiens, UniProt P43116). In words: EP2 binding (KI). From the text:
(§1) U.S. patent application Ser. No. 11/553,143, filed on Oct. 26, 2006, incorporated by reference herein, describes the methods used to obtain the in vitro data in the table below.

Assay [2] concerns the target T1, EP2. In words: EP2 flipr functional assay. Type of assay: cell-based.
Description: as §1

Assay [3] deals with T2, EP4 (Homo sapiens, UniProt P35408). The assay is described as follows: EP4 binding (KI).
Description: as §1

The target of a further assay is T3, hDP (Homo sapiens, UniProt Q13258).
T3 sequence (Q13258 1-359): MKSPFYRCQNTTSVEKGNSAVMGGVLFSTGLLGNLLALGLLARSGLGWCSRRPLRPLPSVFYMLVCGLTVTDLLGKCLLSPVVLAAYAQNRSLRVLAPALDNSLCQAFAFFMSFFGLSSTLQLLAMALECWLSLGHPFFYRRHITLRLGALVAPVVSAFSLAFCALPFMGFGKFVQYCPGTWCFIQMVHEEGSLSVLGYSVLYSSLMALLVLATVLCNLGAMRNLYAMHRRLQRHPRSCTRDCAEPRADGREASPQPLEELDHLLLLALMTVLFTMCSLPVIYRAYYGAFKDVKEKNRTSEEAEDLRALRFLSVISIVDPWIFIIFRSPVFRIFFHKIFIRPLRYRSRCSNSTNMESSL
The assay is described as follows: Other receptors functional assay, hDP. It counts as cell-based.
Description: as §1

The target in assay [4] is T1, EP2. In words: EP2 cAMP assay. It counts as cell-based.
Description: as §1

The target in assay [5] is T2, EP4. In words: EP4 flipr functional assay. Type of assay: cell-based.
Description: as §1

The structures appear in SMILES notation. A value given as a limit tells only on which side of the number the result lay.

T2 sequence (P35408 whole entry): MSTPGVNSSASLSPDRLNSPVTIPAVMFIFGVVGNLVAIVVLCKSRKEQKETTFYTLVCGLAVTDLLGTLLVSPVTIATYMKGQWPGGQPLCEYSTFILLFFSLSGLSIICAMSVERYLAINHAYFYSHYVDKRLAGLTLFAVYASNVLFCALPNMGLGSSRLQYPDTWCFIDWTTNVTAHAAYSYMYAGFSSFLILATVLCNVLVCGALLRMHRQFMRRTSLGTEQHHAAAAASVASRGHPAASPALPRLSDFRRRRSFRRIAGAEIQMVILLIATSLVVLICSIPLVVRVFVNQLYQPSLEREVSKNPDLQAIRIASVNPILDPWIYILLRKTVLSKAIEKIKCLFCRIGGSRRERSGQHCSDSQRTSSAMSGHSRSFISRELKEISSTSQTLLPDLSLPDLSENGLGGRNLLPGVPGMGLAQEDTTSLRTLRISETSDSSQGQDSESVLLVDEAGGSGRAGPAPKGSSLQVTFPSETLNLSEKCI
T1 sequence (P43116 whole entry): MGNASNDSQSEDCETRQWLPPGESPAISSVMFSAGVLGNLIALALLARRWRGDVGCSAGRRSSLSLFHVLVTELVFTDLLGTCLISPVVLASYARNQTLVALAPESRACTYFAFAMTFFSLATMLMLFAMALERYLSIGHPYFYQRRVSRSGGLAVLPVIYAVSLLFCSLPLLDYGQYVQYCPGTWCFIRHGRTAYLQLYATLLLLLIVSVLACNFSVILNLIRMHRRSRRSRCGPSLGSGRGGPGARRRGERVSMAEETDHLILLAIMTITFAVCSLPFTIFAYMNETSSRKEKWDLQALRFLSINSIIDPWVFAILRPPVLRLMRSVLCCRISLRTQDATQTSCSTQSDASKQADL

Turning to `O=C(O)c1ccc(CCC[C@H]2CCC(=O)N2CCc2cc(Cl)cc(Cl)c2)s1` [(S)-5-(3-(1-(3,5-dichlorophenethyl)-5-oxopyrrolidin-2-yl)propyl)thiophene-2-carboxylic acid], the Ki at EP2 [1] was 0.024 µM; at EP4 [3] it was more than 10 µM. Besides, the EC50 on EP2 [2] turned out to be 8.41 µM; on hDP, 6.22 µM; at EP2 [4], 0.0022 µM.

Consider `O=C(O)c1ccc(COC[C@H]2CCC(=O)N2CCc2cc(Cl)cc(Cl)c2)s1` [(R)-5-(((1-(3,5-dichlorophenethyl)-5-oxopyrrolidin-2-yl)methoxy)methyl)thiophene-2-carboxylic acid], for which the Ki was found to be 0.159 µM on EP2 [1] and 7.99 µM at EP4 [3]. Besides, the EC50 is more than 10 µM at EP2 [2], more than 10 µM on EP4 [5] and 0.004 µM on EP2 [4].
